# System: HCAEC and HCASMC co-culture
# Assay: Visualising contractile lumen (vasodilation/vasoconstriction) in coronary artery tubule model
# Type: cell-based, Human
# Settings: Sildenafil at day 6, 5 μM, 50 μM and 500 μM, after Norepinephrine at day 3; phase contrast images, 30 minutes post-exposure
# Protocol: For this example, a 3-lane OrganoPlate® ([…]) with 400 μm wide lanes was used, which comprises a microfluidic network of 3 lanes and two capillary pressure barriers. The network was filled with 50 μL HBSS in the observation window (the point where the 3 lanes converge) to provide additional humidity to the plate. The central lane was filled at the inlet with a neutralised bovine type I atelocollagen solution PureCol® EZ Gel 5 mg/ml (Advanced BioMatrix); the solution was pinned at the capillary pressure barrier leaving a free-standing meniscus at the air-liquid interface in the upper and lower lane. A 30 μL solution of HBSS was introduced into the inlet of the centre lane, and a 1 μL solution of 5% FBS in PBS was introduced at the hole of the outlet of the centre lane forming a dome shape as in Example 1. […] After 1 minute 50 μL of HBSS was added to the outlet and the OrganoPlate was placed in a humidity-controlled environment at 37° C. and 5% CO2 for 1 hour. For cell seeding, 1 μL of a cell suspension containing 10,000 cell/μL Primary Human Coronary Artery Endothelial Cells (HCAEC) and 2,500 cell/μL Primary Human Coronary Artery Smooth Muscle Cells (HCASMC) was seeded in the outlet of the middle lane. The cell suspension was driven into the microfluidic network by means of Laplace pressure due to the surface tension of the cell pellet. Cells were left to attach for between 2-6 hours. […]
smiles,measurement,value
CCCc1nn(C)c2c(=O)[nH]c(-c3cc(S(=O)(=O)N4CCN(C)CC4)ccc3OCC)nc12 [Sildenafil],contraction of the tubule / change of lumen diameter upon exposure to a stimulus,contraction

# — patent US20240271071A1, “METHOD AND APPARATUS FOR FORMING A MICROFLUIDIC GEL STRUCTURE” (Mimetas B.V., priority 2021, published 2024)
